Here are results for 4 cell lines from the supplement of paper PMC10307832.

Holding throughout (test): relative viability (nuclei count vs DMSO), 5 days (fraction); higher = more cells survive
Compound in test [1]: NCC(=O)Nc1ccc(-n2nc(C(F)(F)F)cc2-c2ccc3c(ccc4ccccc43)c2)cc1 + NC(=O)Nc1cc(-c2cccc(F)c2)sc1C(=O)N[C@H]1CCCNC1 [AZD7762] (partner 0.2 µM)
In outline:
(§1)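 Lung cancer cell lines were pin-tool dosed in 1536-well plates on the day after seeding, with either a lone drug or a fixed anchor-drug dose plus five library-drug doses (not always all listed) in √10 steps. Nuclei were counted on 4× images after 5 days. Relative viability is the ratio of treated-well to vehicle-well nuclei counts, with each value a median of duplicate plates.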

Compound in test [2]: NCC(=O)Nc1ccc(-n2nc(C(F)(F)F)cc2-c2ccc3c(ccc4ccccc43)c2)cc1 + CCNC(=O)c1noc(-c2cc(C(C)C)c(O)cc2O)c1-c1ccc(CN2CCOCC2)cc1 [Luminespib] (partner 0.01 µM)
The essentials: as §1

Compound in test [3]: NCC(=O)Nc1ccc(-n2nc(C(F)(F)F)cc2-c2ccc3c(ccc4ccccc43)c2)cc1 + COc1cccc2cc(-c3nc([C@H]4CC[C@H](C(=O)O)CC4)n4ncnc(N)c34)[nH]c12 [OSI-027] (partner 0.5 µM)
In outline:
as §1

Compound in test [4]: NCC(=O)Nc1ccc(-n2nc(C(F)(F)F)cc2-c2ccc3c(ccc4ccccc43)c2)cc1 + CS(=O)(=O)CCNCc1ccc(-c2ccc3ncnc(Nc4ccc(OCc5cccc(F)c5)c(Cl)c4)c3c2)o1 [Lapatinib] (partner 2 µM)
In outline: as §1

Consider NCI-H2085, for which the relative viability in test [1] (first compound 0.02 µM) was 0.943; in test [1] (first compound 0.06325 µM), 1.03; in test [1] (first compound 0.2 µM), 1.04; in test [1] (first compound 0.6325 µM), 1.06; in test [1] (first compound 2 µM) it was 1.04; in test [2] (first compound 0.02 µM) it was 0.537. The relative viability in test [2] (first compound 0.06325 µM) was found to be 0.473; in test [2] (first compound 0.2 µM), 0.466; in test [2] (first compound 0.6325 µM), 0.445; in test [2] (first compound 2 µM), 0.472; in test [3] (first compound 0.02 µM), 0.688; in test [3] (first compound 0.06325 µM) it was 0.908. Also, the relative viability in test [3] (first compound 0.2 µM) came out at 0.654; in test [3] (first compound 0.6325 µM), 0.691; in test [3] (first compound 2 µM), 0.802; in test [4] (first compound 0.02 µM), 0.718; in test [4] (first compound 0.06325 µM), 0.78; in test [4] (first compound 0.2 µM) it was 0.742. For the same cell line, the figures for the relative viability in test [4] (first compound 0.6325 µM) and in test [4] (first compound 2 µM) were 0.813 and 0.818, respectively.

As for NCI-H2087, the relative viability in test [1] (first compound 0.02 µM) turned out to be 1.29; in test [1] (first compound 0.06325 µM), 1.24; in test [1] (first compound 0.2 µM), 1.31; in test [1] (first compound 0.6325 µM), 1.36; in test [1] (first compound 2 µM), 1.23; in test [2] (first compound 0.02 µM) it was 0.151. The relative viability was 0.19 in test [2] (first compound 0.06325 µM); 0.214 in test [2] (first compound 0.2 µM); 0.138 in test [2] (first compound 0.6325 µM); 0.196 in test [2] (first compound 2 µM); 0.543 in test [3] (first compound 0.02 µM); 0.612 in test [3] (first compound 0.06325 µM). Also, the relative viability in test [3] (first compound 0.2 µM) worked out at 0.546; in test [3] (first compound 0.6325 µM), 0.483; in test [3] (first compound 2 µM), 0.626; in test [4] (first compound 0.02 µM), 1.02; in test [4] (first compound 0.06325 µM), 0.988; in test [4] (first compound 0.2 µM), 1.02. Further, the relative viability in test [4] (first compound 0.6325 µM) was 1.11; in test [4] (first compound 2 µM), 1.15.

Regarding NCI-H2126, the relative viability in test [1] (first compound 0.02 µM) is 0.969; in test [1] (first compound 0.06325 µM), 1.12; in test [1] (first compound 0.2 µM), 1.02; in test [1] (first compound 0.6325 µM), 1.01; in test [1] (first compound 2 µM) it was 1.01; in test [2] (first compound 0.02 µM), 0.904. Besides, the relative viability was determined as 0.981 in test [2] (first compound 0.06325 µM); 0.871 in test [2] (first compound 0.2 µM); 0.942 in test [2] (first compound 0.6325 µM); 0.943 in test [2] (first compound 2 µM); 0.773 in test [3] (first compound 0.02 µM); 0.753 in test [3] (first compound 0.06325 µM). Moreover, the relative viability in test [3] (first compound 0.2 µM) was found to be 0.726; in test [3] (first compound 0.6325 µM), 0.741; in test [3] (first compound 2 µM), 0.631; in test [4] (first compound 0.02 µM) it was 0.792; in test [4] (first compound 0.06325 µM), 0.763; in test [4] (first compound 0.2 µM), 0.787. In addition, the relative viability in test [4] (first compound 0.6325 µM) came to 0.793; in test [4] (first compound 2 µM), 0.751.

NCI-H2170: the relative viability is 0.87 in test [1] (first compound 0.02 µM); 0.907 in test [1] (first compound 0.06325 µM); 0.94 in test [1] (first compound 0.2 µM); 0.911 in test [1] (first compound 0.6325 µM); 0.86 in test [1] (first compound 2 µM); 0.738 in test [2] (first compound 0.02 µM). Besides, the relative viability worked out at 0.7 in test [2] (first compound 0.06325 µM); 0.552 in test [2] (first compound 0.2 µM); 0.75 in test [2] (first compound 0.6325 µM); 0.616 in test [2] (first compound 2 µM); 0.67 in test [3] (first compound 0.02 µM); 0.678 in test [3] (first compound 0.06325 µM). Moreover, the relative viability came out at 0.711 in test [3] (first compound 0.2 µM); 0.824 in test [3] (first compound 0.6325 µM); 0.735 in test [3] (first compound 2 µM); 0.278 in test [4] (first compound 0.02 µM); 0.285 in test [4] (first compound 0.06325 µM); 0.277 in test [4] (first compound 0.2 µM). Also, the relative viability stood at 0.286 in test [4] (first compound 0.6325 µM) and 0.288 in test [4] (first compound 2 µM).
